Experiments:
[1] = Hydrolytic stability of PA in the acidic microclimate of the degrading polymer; type: physicochemical; settings: acidic microclimate created upon degradation of the polymer
[2] = Synovial fluid pharmacokinetics after intra-articular injection of unformulated PA; type: in vivo; settings: rat, 15 ng in 5 μl intra-articular
Experimental: Unformulated N-{5-[(cyclopropylamino)carbonyl]-2-methylphenyl}-3-fluoro-4-(pyridin-2-ylmethoxy)benzamide was intra-articularly injected (15 ng in 5 μl injection in PBS) to rats and synovial fluid concentrations were determined at 15, 30 and 60 minutes post dose. The synovial fluid from the rat knee joint was sampled using a knee wash methodology. The knee was exposed and a transverse cut made to the patellar tendon proximal to the tibia. The knee cavity was opened up by dissection, and the knee lavaged between the tibial and femoral condyles with 3×25 μl PBS using an eppendorf pipette.

[3] = test system: rat mono-iodoacetate (MIA) model of joint pain; test: Rat mono-iodoacetate (MIA) model of joint pain, weight bearing asymmetry; type: in vivo; settings: unformulated, 29 μg/ml (69 μM) in 5 μl intra-articular, 3 days post MIA
Experimental: All studies were carried out in a rat mono-iodoacetate (MIA) model of joint pain as a screen for analgesia of pain driven by joint inflammation and destruction (see Ivanavicius et al., 2007 Pain 128 p272). The MIA model induces an early synovitis (day 3) followed by progressive loss of articular cartilage, and subchondral bone pathology by day 14.
N-{5-[(cyclopropylamino)carbonyl]-2-methylphenyl}-3-fluoro-4-(pyridin-2-ylmethoxy)benzamide was formulated into PLGA microspheres (50:50 PLGA as in Example 1) and tested in the MIA model. Rats were injected intra-articularly with MIA on day 0. Three days post MIA (to allow disease to progress) animals were injected intra-articularly with formulated N-{5-[(cyclopropylamino)carbonyl]-2-methylphenyl}-3-fluoro-4-(pyridin-2-ylmethoxy)benzamide in 50:50 PLGA (200 μg/30 μl) or with microsphere formulation ([…]).
A dose of 29 μg/ml (69 μM) of N-{5-[(cyclopropylamino)carbonyl]-2-methylphenyl}-3-fluoro-4-(pyridin-2-ylmethoxy)benzamide was delivered in a 5 μl injection volume to give a Cmin concentration of 1 μM at 1.5 hours. The dosing was carried out 3 days post MIA at the same time point that formulated N-{5-[(cyclopropylamino)carbonyl]-2-methylphenyl}-3-fluoro-4-(pyridin-2-ylmethoxy)benzamide as the PA were dosed. […]

[4] = Systemic pharmacokinetic parameters in the rat; type: in vivo; set-up: systemic Vdss: unit not given here

Cc1ccc(C(=O)NC2CC2)cc1NC(=O)c1ccc(OCc2ccccn2)c(F)c1 [PA, N-{5-[(cyclopropylamino)carbonyl]-2-methylphenyl}-3-fluoro-4-(pyridin-2-ylmethoxy)benzamide]
hydrolytic stability [1]: hydrolytically stable
Clearance (Cl) [2]: 61 µL/h
Volume of distribution (Vdss) [2]: 9 µL
half-life ([2]; read-out: Half-life (t1/2) (converted)): 12 min
efficacy in MIA model (% weight distribution) [3]: no efficacy
systemic Vdss [4]: 1.71 kg⁻¹
clearance ([4]; in vivo, read-out: systemic Cl): 14 mL/min/kg

From patent US20170135996A1, “PHARMACEUTICAL DEPOT FOR N-{5-[(CYCLOPROPYLAMINO)CARBONYL]-2-METHYLPHENYL)-3-FLUORO-4-(PYRIDIN-2-YLMETHOXY)BENZAMIDE” (AstraZeneca AB, priority 2008, published 2017)
